The values below come from publication doi:10.1101/839787v1 (bioRxiv, 2019).

Where a SMILES comes first, the peptide text is derived from it. Bridges are numbered along the chain shown (N, C = ends). Where no end group is shown, it is not given here.

For one data set, the system named is Raw 264 macrophages. In words: Inflammatory response in vitro: LPS-activated macrophages. The note with it: 100 nmol/L peptide. It is filed as cell-based, murine.
In data set [1] the test system is TNBS-induced acute colitis. In words: TNBS-induced acute colitis, curative regime. It is filed as in vivo, BALB/c mice. To be noted: TNBS 3 mg/mouse.
For data set [2], the system named is TNBS-induced acute colitis. The experiment in a line: TNBS-induced acute colitis, protective regime. The data set is classed as in vivo, BALB/c mice. To be noted: TNBS 3 mg/mouse, 0.4 mg/kg systemic, n=8.
The next data set can be described thus: Aqueous solubility. To be noted: aqueous buffer solution, observation in words. It is filed as physicochemical.
A short description of data set [3]: In vitro stability of peptides in human plasma. The data set is classed as in vitro ADME. To be noted: for main metabolite / main degradation product: Mass Spectrometry.
In data set [4] the test system is DSS-induced acute colitis. The experiment in a line: DSS-induced acute ulcerative colitis. The data set is classed as in vivo, C57Bl/6 mice. The note with it: 5% DSS, i.p. days 1, 2, 3, day 8.
Data set [5] has as its system TNBS-induced chronic colitis. The experiment in a line: TNBS-induced chronic colitis. The data set is classed as in vivo, Balb/c mice. The note with it: tolerance regime, treatment during first week only; n=8.
For data set [6], the system named is DSS-induced chronic colitis. The experiment in a line: DSS-induced chronic. It is filed as in vivo, C57Bl/6 mice.

For `CCCCCCCC(=O)N1CCC[C@H]1C(=O)N[C@H]1CSSC[C@@H](C(=O)N[C@@H](CCCCN)C(=O)O)NC(=O)[C@H](CO)NC(=O)[C@H]([C@@H](C)O)NC(=O)[C@H](Cc2ccccc2)NC(=O)[C@H]([C@@H](C)O)NC(=O)[C@H](CCCCN)NC(=O)[C@@H](Cc2c[nH]c3ccccc23)NC(=O)[C@H](Cc2c(C)cc(C)cc2C)NC(=O)[C@H](Cc2ccccc2)NC(=O)[C@H](CC(N)=O)NC(=O)[C@H](CCCCN)NC1=O` [Analog 3], the “effect on production of TNFα, IL-6 and NO by activated macrophages” value (shortened to “effect … IL-6 and NO by activated macrophages”) in the data set on Raw 264 macrophages is recorded as “no effect”.

With `Cc1cc(C)c(C[C@@H]2NC(=O)[C@H](Cc3ccccc3)NC(=O)[C@H](CC(N)=O)NC(=O)[C@H](CCCCN)NC(=O)[C@@H](NC(=O)[C@@H]3CCCN3)CSSC[C@@H](C(=O)N[C@@H](CCCCN)C(=O)O)NC(=O)[C@H](CO)NC(=O)[C@H]([C@@H](C)O)NC(=O)[C@H](Cc3ccccc3)NC(=O)[C@H]([C@@H](C)O)NC(=O)[C@H](CCCCN)NC(=O)[C@@H](Cc3c[nH]c4ccccc34)NC2=O)c(C)c1` [Analog 2], the “effect … IL-6 and NO by activated macrophages” value in the data set on Raw 264 macrophages is recorded as “no effect”.

Take `CCCCCCCC(=O)N1CCC[C@H]1C(=O)N[C@H]1CSSC[C@@H](C(=O)N[C@@H](CCCCN)C(=O)O)NC(=O)[C@H](CO)NC(=O)[C@H]([C@@H](C)O)NC(=O)[C@H](Cc2ccccc2)NC(=O)[C@H]([C@@H](C)O)NC(=O)[C@H](CCCCN)NC(=O)[C@@H](Cc2c[nH]c3ccccc23)NC(=O)[C@H](Cc2ccccc2)NC(=O)[C@H](Cc2c(C)cc(C)cc2C)NC(=O)[C@H](CC(N)=O)NC(=O)[C@H](CCCCN)NC1=O` [Analog 5]: in data set [1] (curative regime days 3, 4, 5, i.p. or s.c. 0.4 mg/kg, n=8), the “effect on clinical signs and survival” value is on record as “significantly effective”. In addition, the “effectiveness of oral administration versus i.p. and s.c.” value in data set [1] (curative regime, oral) was “less effective”. Besides, the “protection from body weight loss, bloody diarrhea and mortality” value in data set [2] was “significantly protected”. Besides, in “Aqueous solubility”, the aqueous solubility entry is recorded as “soluble”. In addition, the “main metabolite / main degradation product” value in data set [3] was “peptide 6”. The “increase of stability in serum with respect to the native neuropeptide” value in data set [3] (from half-lives in serum) was “ten-fold”. The Colon length worked out at 8.65 cm in data set [4] (mean of n=8); 8.7 cm in data set [4] (mouse 2); 9.3 cm in data set [4] (mouse 3); 7.8 cm in data set [4] (mouse 4); 9.2 cm in data set [4] (mouse 5); 8.4 cm in data set [4] (mouse 6). Also, the Colon length was 8.6 cm in data set [4] (mouse 7) and 8.1 cm in data set [4] (mouse 8). For the same molecule, the Colon weight in data set [4] (mean of n=8) is on record as 625 mg; in data set [4] (mouse 1), 624 mg; in data set [4] (mouse 2), 631 mg; in data set [4] (mouse 3), 581 mg; in data set [4] (mouse 4), 662 mg; in data set [4] (mouse 5), 611 mg. The Colon weight in data set [4] (mouse 6) is 597 mg; in data set [4] (mouse 7) it was 624 mg; in data set [4] (mouse 8) it was 677 mg. Also, the “Macroscopic score for colon (0-8)” value in data set [4] (mean of n=8) was 1; in data set [4] (mouse 1), 1; in data set [4] (mouse 2), 1; in data set [4] (mouse 3) it was 0; in data set [4] (mouse 4) it was 2; in data set [4] (mouse 5), 0. Moreover, the “Macroscopic score for colon (0-8)” value was 1 in data set [4] (mouse 6), 1 in data set [4] (mouse 7) and 2 in data set [4] (mouse 8). Moreover, the “protection from subsequent expositions to TNBS, tolerance effect” value in data set [5] is “significantly protected”. The “effect … IL-6 and NO by activated macrophages” value with Raw 264 macrophages is given as “strikingly reduced”. Moreover, the “Lengths (cm) for colons at day 25 after initiation of DSS treatment” value (shortened to “Lengths (cm) for colons”) in data set [6] (Group 3: DSS+A5 one cycle, mean of 8 mice) came to 8.24 cm; in data set [6] (Group 3: DSS+A5 one cycle, mouse 1) it was 8.15 cm; in data set [6] (Group 3: DSS+A5 one cycle, mouse 2) it was 8.78 cm; in data set [6] (Group 3: DSS+A5 one cycle, mouse 3) it was 7.86 cm; in data set [6] (Group 3: DSS+A5 one cycle, mouse 5) it was 8.77 cm; in data set [6] (Group 3: DSS+A5 one cycle, mouse 6), 7.24 cm. Further, the “Lengths (cm) for colons” value in data set [6] (Group 3: DSS+A5 one cycle, mouse 7) was determined as 7.02 cm; in data set [6] (Group 3: DSS+A5 one cycle, mouse 8) it was 9.14 cm; in data set [6] (Group 4: DSS+A5 two cycles, mean of 8 mice) it was 9.64 cm; in data set [6] (Group 4: DSS+A5 two cycles, mouse 3), 9.85 cm; in data set [6] (Group 4: DSS+A5 two cycles, mouse 5), 9.34 cm; in data set [6] (Group 4: DSS+A5 two cycles, mouse 7) it was 9.61 cm. In addition, in data set [6] (Group 4: DSS+A5 two cycles, mouse 8), the “Lengths (cm) for colons” value worked out at 9.15 cm.

For the molecule `Nc1ccc(O)c(C(=O)O)c1` [mesalazine, 5-aminosalycilic acid, reference compound], the “protection from subsequent expositions to TNBS, tolerance effect” value in data set [5] was “fully or partially failed”.

With `C[C@@H](O)[C@@H]1NC(=O)[C@H](CCCCN)NC(=O)[C@H](Cc2c[nH]c3ccccc23)NC(=O)[C@H](Cc2ccccc2)NC(=O)[C@H](Cc2ccccc2)NC(=O)[C@H](CC(N)=O)NC(=O)[C@H](CCCCN)NC(=O)[C@@H](NC(=O)[C@@H]2CCCN2)CSSC[C@@H](C(=O)N[C@@H](CCCCN)C(=O)O)NC(=O)[C@H](CO)NC(=O)[C@H](CO)NC(=O)[C@H](Cc2ccccc2)NC1=O` [Cortistatin, Cortistatin-14, reference compound] (H-PCKNFFWKTFSSCK-OH; disulfide 2-13), the “main metabolite / main degradation product” value in data set [3] is given as “deletion of L-Lys14”.

For the molecule `Cc1cc(C)c(C[C@@H]2NC(=O)[C@H](CC(N)=O)NC(=O)[C@H](CCCCN)NC(=O)[C@@H](NC(=O)[C@@H]3CCCN3)CSSC[C@@H](C(=O)N[C@@H](CCCCN)C(=O)O)NC(=O)[C@H](CO)NC(=O)[C@H]([C@@H](C)O)NC(=O)[C@H](Cc3ccccc3)NC(=O)[C@H]([C@@H](C)O)NC(=O)[C@H](CCCCN)NC(=O)[C@@H](Cc3c[nH]c4ccccc34)NC(=O)[C@H](Cc3ccccc3)NC2=O)c(C)c1` [Analog 4, [L-Msa5_D-Trp7_L-Thr11]-CST14], in the data set with Raw 264 macrophages, the “effect … IL-6 and NO by activated macrophages” value is reported as “no effect”.

Take “Cortistatin-29 (QEGAPPQQSARRDRMPCRNFFWKTFSSCK; disulfide 17-28 (inferred); ends not checked; UniProt O00230 77-105, looked up)”: the Colon length in data set [4] (mean of n=8) was determined as 9.08 cm; in data set [4] (mouse 1) it was 8.9 cm; in data set [4] (mouse 2), 9.1 cm; in data set [4] (mouse 3) it was 9.5 cm; in data set [4] (mouse 4) it was 8.4 cm; in data set [4] (mouse 5), 9.2 cm. Moreover, the figures for the Colon length in data set [4] (mouse 6), in data set [4] (mouse 7) and in data set [4] (mouse 8) were 8.9 cm, 9.6 cm and 9.1 cm, respectively. Besides, the Colon weight in data set [4] (mean of n=8) is given as 621 mg; in data set [4] (mouse 1) it was 622 mg; in data set [4] (mouse 2), 634 mg; in data set [4] (mouse 3), 578 mg; in data set [4] (mouse 4) it was 655 mg; in data set [4] (mouse 5), 607 mg. Besides, the Colon weight amounted to 632 mg in data set [4] (mouse 6), 612 mg in data set [4] (mouse 7) and 635 mg in data set [4] (mouse 8). Also, the “Macroscopic score for colon (0-8)” value in data set [4] (mean of n=8) was found to be 0.87; in data set [4] (mouse 1), 1; in data set [4] (mouse 2), 1; in data set [4] (mouse 3), 0; in data set [4] (mouse 4), 2; in data set [4] (mouse 5), 1. Further, the “Macroscopic score for colon (0-8)” value in data set [4] (mouse 6) stood at 1; in data set [4] (mouse 7) it was 0; in data set [4] (mouse 8), 1.
